Columns and labels:
[1] = DLS size of dendrimersomes assembled from glycerol-JDs in water at different concentrations; format: physicochemical; details: for Dh (nm): size distribution by intensity
Procedure: Assembly of all eight glycerol-JDs was performed by injection of their ethanol solution (50 μL) into 1 mL of Milli-Q water. The size distribution and structure of resulting DSs were analyzed by DLS (FIG. 84) and cryo-TEM. […] In a certain concentration range the size of DSs increased with the concentration of JDs injected in water or buffer. […] The dimensions of the assemblies were identical when the concentrations of the JDs in water were identical. Sizes of assemblies from mixtures of 1R and 1S in different ratios (1:3, 1:1 and 3:1), were also identical (FIG. 84). […] With the exception of the rotation of polarized light, the physical properties of enantiomers and their racemic mixtures must be identical.
Dynamic light scattering (DLS). Hydrodynamic diameters (Dh) of the self-assemblies of dendrimer molecules and their size distributions were measured on a Malvern Instruments particle sizer (Zetasizer® Nano S, Malvern Instruments, UK) equipped with 4 mW He—Ne laser (633 nm) and avalanche photodiode positioned at […] to the beam and temperature controlled cuvette holder. Experiments were performed at 25° C. in triplicate. The distribution of radius was intensity.

[2] = Cryo-TEM of dendrimersomes from glycerol-JDs, number of vesicle layers; format: physicochemical; details: for lamellarity of DSs (in words) / calculated percentages of unilamellar DSs in the selected images: cryo-TEM; for calculated percentages of unilamellar DSs in the selected images: JD 1 mg mL-1 in water; for Number of vesicle layers: 1 (count of vesicles): vesicles with 1 layer; for Number of vesicle layers: 2 (count of vesicles): vesicles with 2 layers; for Number of vesicle layers: 3 (count of vesicles): vesicles with 3 layers; for Number of vesicle layers: 4 (count of vesicles): vesicles with 4 layers; for Number of vesicle layers: 5 (count of vesicles): vesicles with 5 layers; for Number of vesicle layers: 6 (count of vesicles): vesicles with 6 layers; for Number of vesicle layers: 7 (count of vesicles): vesicles with 7 layers; for Number of vesicle layers: 8 (count of vesicles): vesicles with 8 layers; for Number of vesicle layers: 9 (count of vesicles): vesicles with 9 layers; for Number of vesicle layers: 10 (count of vesicles): vesicles with 10 layers; for Number of vesicle layers: 11 (count of vesicles): vesicles with 11 layers; for Number of vesicle layers: 12 (count of vesicles): vesicles with 12 layers
Source text: The red numbers in FIG. 85 stand for the unilamellar while yellow numbers for multilamellar DSs. The calculated percentages of unilamellar DSs in the selected images for 2R, 2S and 2rac are 91%, 70% and 13%, respectively. Same trend was found for cryo-TEM of 1R, 1S and 1rac (FIG. 86 through FIG. 88). […] Achiral DSs are all unilamellar.
Cryogenic Transmission Electron Microscopy (Cryo-TEM). Morphologies of the Janus Dendrimer assemblies were characterized by cryo-TEM. Images were acquired on a Carl Zeiss Libra 120 microscope. Samples were prepared by plunge freezing of aqueous dispersion on plasma-treated lacey grids. The vitrified specimens were then transferred to a Gatan-910 cryoholder. The 5 images were recorded at −170° C. with an acceleration voltage of 120 kV. The concentration of JD in the aqueous solution of DSs was 1 mg mL-^1.

Row | Structure (SMILES) | PDI ([1]; JD 0.025 mg·mL−1 in water) | Dh (nm) ([1]; JD 0.025 mg·mL−1 in water) | PDI ([1]; JD 0.05 mg·mL−1 in water) | Dh (nm) ([1]; JD 0.05 mg·mL−1 in water) | PDI ([1]; JD 0.1 mg·mL−1 in water) | Dh (nm) ([1]; JD 0.1 mg·mL−1 in water) | PDI ([1]; JD 0.15 mg·mL−1 in water) | Dh (nm) ([1]; JD 0.15 mg·mL−1 in water) | PDI ([1]; JD 0.2 mg·mL−1 in water) | Dh (nm) ([1]; JD 0.2 mg·mL−1 in water) | PDI ([1]; JD 0.25 mg·mL−1 in water) | Dh (nm) ([1]; JD 0.25 mg·mL−1 in water) | PDI ([1]; JD 0.3 mg·mL−1 in water) | Dh (nm) ([1]; JD 0.3 mg·mL−1 in water) | PDI ([1]; JD 0.4 mg·mL−1 in water) | Dh (nm) ([1]; JD 0.4 mg·mL−1 in water) | PDI ([1]; JD 0.5 mg·mL−1 in water) | Dh (nm) ([1]; JD 0.5 mg·mL−1 in water) | Number of vesicle layers: 1 (count of vesicles) [2] | Number of vesicle layers: 2 (count of vesicles) [2] | further results
1 | CCCCCCCCCCCCOc1cc(OCCCCCCCCCCCC)cc(C(=O)OC[C@H](COC(=O)C(C)(COC(=O)c2cc(OCCOCCOCCOC)c(OCCOCCOCCOC)c(OCCOCCOCCOC)c2)COC(=O)c2cc(OCCOCCOCCOC)c(OCCOCCOCCOC)c(OCCOCCOCCOC)c2)OC(=O)c2cc(OCCCCCCCCCCCC)cc(OCCCCCCCCCCCC)c2)c1 [Compound 1R, (3,5)-12G1-GC-(R)-BMPA-(3,4,5)-3EO-G1] | 0.455 | 82 nm | 0.336 | 87 nm | 0.197 | 110 nm | 0.195 | 124 nm | 0.175 | 135 nm | 0.202 | 140 nm | 0.190 | 148 nm | 0.228 | 178 nm | 0.326 | 233 nm | 61 | 15 | Number of vesicle layers: 3 (count of vesicles) [2]: 4; Number of vesicle layers: 4 (count of vesicles) [2]: 1; Number of vesicle layers: 5 (count of vesicles) [2]: 1; Number of vesicle layers: 6 (count of vesicles) [2]: 0
2 | CCCCCCCCCCCCOc1cc(OCCCCCCCCCCCC)cc(C(=O)OC[C@@H](COC(=O)C(C)(COC(=O)c2cc(OCCOCCOCCOC)c(OCCOCCOCCOC)c(OCCOCCOCCOC)c2)COC(=O)c2cc(OCCOCCOCCOC)c(OCCOCCOCCOC)c(OCCOCCOCCOC)c2)OC(=O)c2cc(OCCCCCCCCCCCC)cc(OCCCCCCCCCCCC)c2)c1 [Compound 1S, (3,5)-12G1-GC-(S)-BMPA-(3,4,5)-3EO-G1] | 0.446 | 80 nm | 0.359 | 86 nm | 0.223 | 100 nm | 0.190 | 124 nm | 0.195 | 135 nm | 0.203 | 142 nm | 0.186 | 147 nm | 0.258 | 184 nm | 0.438 | 229 nm | 23 | 9 | Number of vesicle layers: 3 (count of vesicles) [2]: 3; Number of vesicle layers: 4 (count of vesicles) [2]: 4; Number of vesicle layers: 5 (count of vesicles) [2]: 1; Number of vesicle layers: 6 (count of vesicles) [2]: 0
3 | CCCCCCCCCCCCOc1cc(OCCCCCCCCCCCC)cc(C(=O)OCC(COC(=O)C(C)(COC(=O)c2cc(OCCOCCOCCOC)c(OCCOCCOCCOC)c(OCCOCCOCCOC)c2)COC(=O)c2cc(OCCOCCOCCOC)c(OCCOCCOCCOC)c(OCCOCCOCCOC)c2)OC(=O)c2cc(OCCCCCCCCCCCC)cc(OCCCCCCCCCCCC)c2)c1 (racemic) [Compound 1rac, (3,5)-12G1-GC-(rac)-BMPA-(3,4,5)-3EO-G1] | 0.398 | 86 nm | 0.277 | 109 nm | 0.268 | 123 nm | 0.232 | 128 nm | 0.216 | 136 nm | 0.238 | 142 nm | 0.203 | 153 nm | 0.275 | 174 nm | 0.240 | 281 nm | 7 | 6 | Number of vesicle layers: 3 (count of vesicles) [2]: 2; Number of vesicle layers: 4 (count of vesicles) [2]: 1; Number of vesicle layers: 5 (count of vesicles) [2]: 1; Number of vesicle layers: 6 (count of vesicles) [2]: 3

Now from value to molecule, other results behind:

Row | PDI ([1]; JD 0.025 mg·mL−1 in water) | Dh (nm) ([1]; JD 0.025 mg·mL−1 in water) | PDI ([1]; JD 0.05 mg·mL−1 in water) | Dh (nm) ([1]; JD 0.05 mg·mL−1 in water) | PDI ([1]; JD 0.1 mg·mL−1 in water) | Dh (nm) ([1]; JD 0.1 mg·mL−1 in water) | PDI ([1]; JD 0.15 mg·mL−1 in water) | Dh (nm) ([1]; JD 0.15 mg·mL−1 in water) | PDI ([1]; JD 0.2 mg·mL−1 in water) | Dh (nm) ([1]; JD 0.2 mg·mL−1 in water) | PDI ([1]; JD 0.25 mg·mL−1 in water) | Dh (nm) ([1]; JD 0.25 mg·mL−1 in water) | PDI ([1]; JD 0.3 mg·mL−1 in water) | Dh (nm) ([1]; JD 0.3 mg·mL−1 in water) | PDI ([1]; JD 0.4 mg·mL−1 in water) | Dh (nm) ([1]; JD 0.4 mg·mL−1 in water) | PDI ([1]; JD 0.5 mg·mL−1 in water) | Dh (nm) ([1]; JD 0.5 mg·mL−1 in water) | Number of vesicle layers: 1 (count of vesicles) [2] | Number of vesicle layers: 2 (count of vesicles) [2] | Structure (SMILES) | further results
4 | 0.465 | 106 nm | 0.422 | 107 nm | 0.291 | 112 nm | 0.212 | 119 nm | 0.203 | 128 nm | 0.223 | 132 nm | 0.235 | 153 nm | 0.205 | 165 nm | 0.295 | 288 nm | 63 | 13 | CCCCCCCCCCCCOc1cc(OCCCCCCCCCCCC)cc(C(=O)OCC(C)(COC(=O)c2cc(OCCCCCCCCCCCC)cc(OCCCCCCCCCCCC)c2)C(=O)OC[C@H](COC(=O)c2cc(OCCOCCOCCOC)c(OCCOCCOCCOC)c(OCCOCCOCCOC)c2)OC(=O)c2cc(OCCOCCOCCOC)c(OCCOCCOCCOC)c(OCCOCCOCCOC)c2)c1 [Compound 2S, (3,5)-12G1-BMPA-GC-(S)-(3,4,5)-3EO-G1] | lamellarity of DSs (in words) [2]: unilamellar DSs predominantly; calculated percentages of unilamellar DSs in the selected images [2]: 70%; Number of vesicle layers: 3 (count of vesicles) [2]: 9; Number of vesicle layers: 4 (count of vesicles) [2]: 1; Number of vesicle layers: 5 (count of vesicles) [2]: 0; Number of vesicle layers: 6 (count of vesicles) [2]: 0; Number of vesicle layers: 7 (count of vesicles) [2]: 1; Number of vesicle layers: 8 (count of vesicles) [2]: 1; Number of vesicle layers: 9 (count of vesicles) [2]: 0; Number of vesicle layers: 10 (count of vesicles) [2]: 3; Number of vesicle layers: 11 (count of vesicles) [2]: 1; Number of vesicle layers: 12 (count of vesicles) [2]: 0
5 | 0.416 | 107 nm | 0.368 | 108 nm | 0.258 | 111 nm | 0.257 | 125 nm | 0.242 | 134 nm | 0.186 | 139 nm | 0.227 | 152 nm | 0.263 | 180 nm | 0.497 | 319 nm | 202 | 2 | CCCCCCCCCCCCOc1cc(OCCCCCCCCCCCC)cc(C(=O)OCC(C)(COC(=O)c2cc(OCCCCCCCCCCCC)cc(OCCCCCCCCCCCC)c2)C(=O)OC[C@@H](COC(=O)c2cc(OCCOCCOCCOC)c(OCCOCCOCCOC)c(OCCOCCOCCOC)c2)OC(=O)c2cc(OCCOCCOCCOC)c(OCCOCCOCCOC)c(OCCOCCOCCOC)c2)c1 [Compound 2R, (3,5)-12G1-BMPA-GC-(R)-(3,4,5)-3EO-G1] | lamellarity of DSs (in words) [2]: unilamellar DSs predominantly; calculated percentages of unilamellar DSs in the selected images [2]: 91%; Number of vesicle layers: 3 (count of vesicles) [2]: 5; Number of vesicle layers: 4 (count of vesicles) [2]: 1; Number of vesicle layers: 5 (count of vesicles) [2]: 3; Number of vesicle layers: 6 (count of vesicles) [2]: 2; Number of vesicle layers: 7 (count of vesicles) [2]: 0; Number of vesicle layers: 8 (count of vesicles) [2]: 0; Number of vesicle layers: 9 (count of vesicles) [2]: 0; Number of vesicle layers: 10 (count of vesicles) [2]: 0; Number of vesicle layers: 11 (count of vesicles) [2]: 1; Number of vesicle layers: 12 (count of vesicles) [2]: 0

From patent publication US20240252677A1, “ONE-COMPONENT DELIVERY SYSTEM FOR NUCLEIC ACIDS” (The Trustees of the University of Pennsylvania, priority 2021, published 2024)
